These results are taken from patent US20250171511A1, “ANTIVIRAL PEPTIDES AND METHODS OF USE THEREOF” (Versitech Limited, priority 2021, published 2025).

The nature of data set [1]: Solubility of peptide in water. Format: physicochemical. On the procedure:
H23, H26, H30, 2H30, and 4H30 shown in Table 1 were synthesized by ChinaPeptide (Shanghai, China). All peptides were dissolved in water. The solubility of peptide in water is greater than 5 mg ml^−1. The purity of all peptides was >80%. The purity and mass of each peptide were verified by HPLC and mass spectrometry.

A further data set concerns VeroE6 cells. Nature of the data set: Endosomal acidification assay. Format: cell-based. On the procedure:
Endosomal acidification was detected with a pH-sensitive dye (pHrodo green dextran, Invitrogen, Cat^# P35365) according to the manufacturer's instructions as previously described but with slight modification (H. Zhao, et al., Nat Commun, 9 (2018) 2358). First, VeroE6 cells were treated with DMEM, 4H30 (25.0 μg ml^−1), or bafilomycin A1 (50.0 nM) at 4° C. for 15 min. Second, VeroE6 cells were added with 100 μg ml^−1 of pH-sensitive dye and DAPI and then incubated at 4° C. for 15 min. Before taking images, cells were further incubated at 37° C. for 15 min and then cells were washed twice with PBS. Finally, PBS was added to cells and images were taken immediately with confocal microscope (Carl Zeiss LSM 800, Germany).

Data set [2] concerns spike-ACE2 mediated fusion. Format: cell-based. Particulars: endocytosis pathway.
For data set [3], the target named is SARS-CoV-2 spike (SARS-CoV-2), P0DTC2. The data set is described as follows: cell-based or functional assay.

Where a SMILES comes first, the peptide text is derived from it.

As a reminder, the solubility is how much of the substance goes into solution per volume. High values mean much dissolved substance, low ones little dissolved substance. In data set [1], `CC[C@H](C)[C@H](NC(=O)[C@H](CCC(N)=O)NC(=O)[C@H](CCCCN)NC(=O)[C@H](Cc1ccc(O)cc1)NC(=O)[C@H](CCCNC(=N)N)NC(=O)[C@H](CCCNC(=N)N)NC(=O)[C@@H]1CCCN1C(=O)[C@H](CS)NC(=O)[C@H](Cc1ccccc1)NC(=O)[C@@H](NC(=O)[C@@H]1CCCN1C(=O)[C@H](Cc1c[nH]cn1)NC(=O)[C@@H](N)CS)C(C)C)C(=O)NCC(=O)N[C@H](C(=O)N[C@@H](CS)C(=O)NCC(=O)N[C@@H](CC(C)C)C(=O)N1CCC[C@H]1C(=O)NCC(=O)N[C@H](C(=O)N[C@@H](CCCCN)C(=O)N[C@@H](CS)C(=O)O)[C@@H](C)O)[C@@H](C)O` [Peptide H23] (H-CHPVFCPRRYKQIGTCGLPGTKC-OH; N-terminus and C-terminus assumed) had a solubility of more than 5000 µg/mL.
For the molecule `CC[C@H](C)[C@H](NC(=O)[C@H](CCC(N)=O)NC(=O)[C@H](CCCCN)NC(=O)[C@H](Cc1ccc(O)cc1)NC(=O)[C@H](CCCNC(=N)N)NC(=O)[C@H](CCCNC(=N)N)NC(=O)[C@@H]1CCCN1C(=O)[C@H](CS)NC(=O)[C@H](Cc1ccccc1)NC(=O)[C@@H](NC(=O)[C@@H]1CCCN1C(=O)[C@H](Cc1c[nH]cn1)NC(=O)[C@@H](N)CS)C(C)C)C(=O)NCC(=O)N[C@H](C(=O)N[C@@H](CS)C(=O)NCC(=O)N[C@@H](CC(C)C)C(=O)N1CCC[C@H]1C(=O)NCC(=O)N[C@H](C(=O)N[C@@H](CCCCN)C(=O)N[C@@H](CS)C(=O)N[C@@H](CS)C(=O)N[C@@H](CCCCN)C(=O)N[C@@H](CCCCN)C(=O)O)[C@@H](C)O)[C@@H](C)O` [Peptide H26] (H-CHPVFCPRRYKQIGTCGLPGTKCCKK-OH; N-terminus and C-terminus assumed), the solubility in data set [1] is more than 5000 µg/mL.
Same read-out and setting: for `CC[C@H](C)[C@H](NC(=O)[C@H](C)NC(=O)CN)C(=O)N[C@@H](CS)C(=O)N[C@@H](Cc1c[nH]cn1)C(=O)N1CCC[C@H]1C(=O)N[C@H](C(=O)N[C@@H](Cc1ccccc1)C(=O)N[C@@H](CS)C(=O)N1CCC[C@H]1C(=O)N[C@@H](CCCNC(=N)N)C(=O)N[C@@H](CCCNC(=N)N)C(=O)N[C@@H](Cc1ccc(O)cc1)C(=O)N[C@@H](CCCCN)C(=O)N[C@@H](CCC(N)=O)C(=O)N[C@H](C(=O)NCC(=O)N[C@H](C(=O)N[C@@H](CS)C(=O)NCC(=O)N[C@@H](CC(C)C)C(=O)N1CCC[C@H]1C(=O)NCC(=O)N[C@H](C(=O)N[C@@H](CCCCN)C(=O)N[C@@H](CS)C(=O)N[C@@H](CS)C(=O)N[C@@H](CCCCN)C(=O)N[C@@H](CCCCN)C(=O)N1CCC[C@H]1C(=O)O)[C@@H](C)O)[C@@H](C)O)[C@@H](C)CC)C(C)C` [Peptide H30] (H-GAICHPVFCPRRYKQIGTCGLPGTKCCKKP-OH; N-terminus and C-terminus assumed) the value was more than 5000 µg/mL.
Regarding `CO/C1=C\C(C)=C\[C@@H](C)[C@@H](O)[C@@H](C)C/C(C)=C/C=C/[C@H](OC)[C@@H]([C@@H](C)[C@@H](O)[C@H](C)[C@@]2(O)C[C@@H](O)[C@H](C)[C@@H](C(C)C)O2)OC1=O` [bafilomycin Al, bafilomycin A1, reference compound], the endosomal acidification result in the data set on VeroE6 cells was “inhibiting endosomal acidification”. Besides, the “spike-ACE2 mediated cell fusion” value in data set [2] is “inhibiting endosomal acidification and cell fusion”.
As for GAICHPVFCPRRYKQIGTCGLPGTKCCKKP (modifications not checked) [four branched H30 (4H30)], the IC50 of inhibition of SARS-CoV-2 infection, plaque reduction assay in PBS in data set [3] was 0.59 µg/mL.
